One test deals with T1, NURR-1/RXRα (Homo sapiens, UniProt P19793).
T1 construct: expressed in transfected cells; host or cells: Cos-7 cells
Kind of test: Transactivation test, NURR-1-Gal4/RXRα, luciferase reporter in Cos-7 cells. The test is classed as cell-based. As to conditions: for EC50: Cos-7 cells, NURR-1-Gal4/RXRα, luciferase reporter, read-out: hNurr1_RXRaFL EC50; for Emax: COS-7, induction level relative to reference XCT0135908 at 2×10^−5 M (=100%), read-out: hNurr1_RXRaFL Emax (%). The procedure:
(§1) The ability of the compounds according to the invention to behave as an activator of the heterodimers formed by the NURR-1 nuclear receptor and the RXR nuclear receptors was measured by means of an in vitro test. A transactivation test was used as primary selection (screening) test. Cos-7 cells were cotransfected with a plasmid expressing a chimera of the human NURR-1-Gal4 receptor, a plasmid expressing the human RXR receptor (RXRα or RXRγ receptor) and a 5Gal4pGL3-TK-Luc reporter plasmid. The transfctions were carried out using a chemical agent (Jet PEI). The transfected cells were distributed into 384-well plates and left to stand for 21 hours. At time 24 hours the culture medium was changed. The test products were added (final concentration of between 10^''4 and 3×10^-10 M) to the culture medium. After incubation overnight, the lucifeiase expression was measured after addition of SteadyGlo according to the instructions of the manufacturer (Promega). […] The induction levels (Emax) were calculated relative to the basal activity of each heterodimer.
(A reporter such as luciferase makes a cellular process visible.)

Another test addresses T2, NURR-1/RXRγ (Homo sapiens, UniProt P48443).
T2 construct: expressed in transfected cells; host or cells: Cos-7 cells
Nature of the test: Transactivation test, NURR-1-Gal4/RXRγ, luciferase reporter in Cos-7 cells. In kind it is cell-based. As to conditions: for EC50: Cos-7 cells, NURR-1-Gal4/RXRγ, luciferase reporter, read-out: hNurr1_RXRgFL EC50; for Emax: COS-7, induction level relative to reference XCT0135908 at 2×10^−5 M (=100%), read-out: hNurr1_RXRgFL Emax (%). Here is the method:
as §1

Setting [1] is: induction level relative to reference XCT0135908 at 2×10^−5 M (=100%).

Some results are limits rather than exact numbers.

T1 sequence (P19793 whole entry): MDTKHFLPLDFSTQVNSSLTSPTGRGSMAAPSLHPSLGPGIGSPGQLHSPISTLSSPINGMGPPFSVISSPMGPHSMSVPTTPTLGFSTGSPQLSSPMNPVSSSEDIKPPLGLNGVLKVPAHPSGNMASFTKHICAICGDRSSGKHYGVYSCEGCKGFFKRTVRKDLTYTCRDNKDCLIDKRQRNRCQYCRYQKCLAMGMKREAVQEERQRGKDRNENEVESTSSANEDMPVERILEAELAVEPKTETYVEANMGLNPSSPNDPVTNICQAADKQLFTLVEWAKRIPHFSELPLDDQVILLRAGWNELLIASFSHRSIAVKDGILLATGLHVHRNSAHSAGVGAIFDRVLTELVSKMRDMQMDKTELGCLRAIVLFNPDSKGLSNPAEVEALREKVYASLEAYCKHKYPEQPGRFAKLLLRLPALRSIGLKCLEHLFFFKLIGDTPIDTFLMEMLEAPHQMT
T1 sequence (P43354 whole entry partner): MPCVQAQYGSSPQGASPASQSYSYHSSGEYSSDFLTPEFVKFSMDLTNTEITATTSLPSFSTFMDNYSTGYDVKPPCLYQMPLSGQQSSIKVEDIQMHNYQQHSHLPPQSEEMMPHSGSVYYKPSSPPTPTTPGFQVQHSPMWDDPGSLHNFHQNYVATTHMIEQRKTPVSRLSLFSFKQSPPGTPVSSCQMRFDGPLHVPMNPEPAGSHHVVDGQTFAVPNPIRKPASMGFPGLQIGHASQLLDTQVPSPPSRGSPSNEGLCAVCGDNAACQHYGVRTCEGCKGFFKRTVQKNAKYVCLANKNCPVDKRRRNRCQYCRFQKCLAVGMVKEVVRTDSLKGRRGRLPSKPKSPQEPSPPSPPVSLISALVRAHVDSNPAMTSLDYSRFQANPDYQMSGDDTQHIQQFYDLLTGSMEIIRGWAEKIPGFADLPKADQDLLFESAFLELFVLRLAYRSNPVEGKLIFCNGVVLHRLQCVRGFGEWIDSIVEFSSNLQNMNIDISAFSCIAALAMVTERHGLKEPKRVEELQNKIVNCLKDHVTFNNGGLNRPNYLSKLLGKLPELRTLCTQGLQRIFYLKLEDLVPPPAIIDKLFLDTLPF
T1 sequence (P04386 1-147 partner limits assumed): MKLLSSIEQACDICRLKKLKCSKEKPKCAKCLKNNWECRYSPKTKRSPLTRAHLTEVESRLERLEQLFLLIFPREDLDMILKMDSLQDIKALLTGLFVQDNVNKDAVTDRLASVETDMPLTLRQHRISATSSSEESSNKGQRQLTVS
T2 sequence (P48443 whole entry): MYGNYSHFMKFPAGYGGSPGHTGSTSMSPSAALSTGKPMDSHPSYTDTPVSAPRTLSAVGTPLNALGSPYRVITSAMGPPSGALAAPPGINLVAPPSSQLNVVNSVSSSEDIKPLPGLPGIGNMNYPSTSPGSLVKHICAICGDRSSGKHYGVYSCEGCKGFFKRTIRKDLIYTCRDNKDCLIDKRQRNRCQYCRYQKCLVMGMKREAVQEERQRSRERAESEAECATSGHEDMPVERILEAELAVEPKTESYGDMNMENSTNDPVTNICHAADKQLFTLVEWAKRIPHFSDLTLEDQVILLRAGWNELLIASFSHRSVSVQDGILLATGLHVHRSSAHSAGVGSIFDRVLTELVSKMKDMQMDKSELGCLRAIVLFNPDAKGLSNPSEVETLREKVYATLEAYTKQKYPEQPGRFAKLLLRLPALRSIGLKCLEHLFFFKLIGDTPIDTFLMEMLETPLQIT
T2 sequence (P43354 whole entry partner): as the sequence (P43354 whole entry partner) above
T2 sequence (P04386 1-147 partner limits assumed): as the sequence (P04386 1-147 partner limits assumed) above

Turning to `CC1COc2cc(C(F)(F)F)ccc2N1c1cccc(N2CC(C(=O)O)C2)c1` (single isomer, unassigned; isomer 2) [Example 124-2, 1-[3-[3-methyl-7-(trifluromethyl)-2,3-dihydro-1,4-benzoxazin-4-yl]phenyl]azetidine-3-carboxylic acid, isomer 2], the EC50 (commonly the concentration at which the effect is half-maximal) worked out at 0.01 µM on NURR-1/RXRα and 0.017 µM on NURR-1/RXRγ. The “hNurr1_RXRaFL Emax (%)” value on NURR-1/RXRα (setting [1]) came to 107%. Further, the “hNurr1_RXRgFL Emax (%)” value on NURR-1/RXRγ (setting [1]) came out at 95%.

Turning to `Cc1cc(-c2cccc(OC(F)(F)F)c2)cc(N2CC(C(=O)O)C2)c1` [Example 1, 1-[3-methyl-5-[3-(trifluoromethoxy)phenyl]phenyl]azetidine-3-carboxylic acid], at NURR-1/RXRα, the Emax (usually the greatest response seen or fitted, relative to the assay's reference) was 122% and the 50% effective concentration (EC50) turned out to be 0.041 µM. On NURR-1/RXRγ, the Emax was determined as 108% and the EC50 worked out at 0.069 µM.

In the case of `Cc1cc(-c2cc(N(C)C)cc(C(F)(F)F)c2)cc(N2CC(C(=O)O)C2)c1` [Example 2, 1-[3-[3-(dimethylamino)-5-(trifluoromethyl)phenyl]-5-methylphenyl]azetidine-3-carboxylate acid], the Emax at NURR-1/RXRα and at NURR-1/RXRγ was 119% each time. The EC50 was 0.019 µM at NURR-1/RXRα and 0.032 µM on NURR-1/RXRγ.

As for `Cc1cc(-c2cccc(C(C)C)c2)cc(N2CC(C(=O)O)C2)c1` [Example 3, 1-[3-(3-isopropylphenyl)-5-methylphenyl]azetidine-3-carboxylate acid], the Emax on NURR-1/RXRα came to 101%; on NURR-1/RXRγ, 97%. In addition, the EC50 at NURR-1/RXRα worked out at 0.013 µM; on NURR-1/RXRγ, 0.016 µM.

For the molecule `Cc1cc(-c2cccc(N3CCCC3)c2)cc(N2CC(C(=O)O)C2)c1` [Example 4, 1-[3-methyl-5-(3-pyrrolidin-1-ylphenyl)phenyl]azetidine-3-carboxlic acid], on NURR-1/RXRα, the Emax came to 96% and the EC50 was 0.038 µM. For the same molecule, on NURR-1/RXRγ, the maximal effect (Emax) is 100% and the EC50 came to 0.028 µM.

Consider `Cc1cc(-c2cccc(OC(F)F)c2)cc(N2CC(C(=O)O)C2)c1` [Example 5, 1-[3-[3-(difluoromethoxy)phenyl]-5-methylphenyl]azetidine-3-carboxylic acid], for which the results for the Emax at NURR-1/RXRα and on NURR-1/RXRγ were 124% and 115%, respectively. In addition, the values for the EC50 on NURR-1/RXRα and on NURR-1/RXRγ were 0.047 µM and 0.093 µM, respectively.

`Cc1cc(-c2cccc(N3CCOCC3)c2)cc(N2CC(C(=O)O)C2)c1` [Example 6, 1-[3-methyl-5-(3-morpholinophenyl)phenyl]azetidine-3-carboxylic acid]: the Emax at NURR-1/RXRα stood at 111%; at NURR-1/RXRγ it was 101%. Further, the EC50 came to 0.186 µM at NURR-1/RXRα and 0.461 µM at NURR-1/RXRγ.

As to `Cc1cc(-c2cc(F)cc(C(F)(F)F)c2)cc(N2CC(C(=O)O)C2)c1` [Example 8, 1-[3-[3-fluoro-5-(trifluoromethyl)phenyl]-5-methluphenyl]azetidine-3-carboxylic acid], at NURR-1/RXRα, the Emax was found to be 107% and the EC50 came out at 0.005 µM. Also, on NURR-1/RXRγ, the Emax worked out at 107% and the concentration for a half-maximal effect (EC50) turned out to be 0.012 µM.

On to `Cc1cc(-c2ccc3c(c2)C(C)(C)CCC3(C)C)cc(N2CC(C(=O)O)C2)c1` [Example 9, 1-[3-methyl-5-(1,1,4,4-tetramethyltetralin-6-yl)phenyl]azetidine-3-carboxylic acid], for which the Emax at NURR-1/RXRα worked out at 82%; at NURR-1/RXRγ, 86%. Moreover, the EC50 worked out at 0.007 µM on NURR-1/RXRα and 0.016 µM at NURR-1/RXRγ.

As for `O=C(O)C1CN(c2cccc(-c3cc(F)cc(C(F)(F)F)c3)c2)C1` [Example 13, 1-[3-[3-fluoro-5-(trifluoromethyl)phenyl]phenyl]azetidine-3-carboxylic acid], at NURR-1/RXRα, the Emax is 105% and the EC50 stood at 0.032 µM. In addition, at NURR-1/RXRγ, the Emax is 102% and the EC50 worked out at 0.116 µM.

`O=C(O)C1CN(c2cccc(-c3cccc(C(F)(F)F)c3)c2)C1` [Example 14, 1-[3-[3-(trifluoromethyl)phenyl]phenyl]azetidine-3-carboxylic acid]: on NURR-1/RXRα, the Emax is 99% and the EC50 was 0.053 µM. Besides, at NURR-1/RXRγ, the Emax amounted to 106% and the EC50 was 0.114 µM.

For the molecule `Cc1cc(-c2cccc(C(F)(F)F)c2C)cc(N2CC(C(=O)O)C2)c1` [Example 15, 1-[3-methyl-5-[2-methyl-3-(trifluoromethyl)phenyl]phenyl]azetidine-3-carboxylic acid], on NURR-1/RXRα, the Emax was found to be 95% and the concentration giving a half-maximal response (EC50) amounted to 0.022 µM. Also, on NURR-1/RXRγ, the Emax was determined as 85% and the EC50 worked out at 0.043 µM.

Regarding `Cc1cc(-c2cc(Cl)cc(C(F)(F)F)c2)cc(N2CC(C(=O)O)C2)c1` [Example 16, 1-[3-[3-chloro-5-(trifluoromethyl)phenyl]-5-methylphenyl]azetidine-3-carboxylic acid], on NURR-1/RXRα, the Emax worked out at 119% and the EC50 is 0.002 µM. On NURR-1/RXRγ, the Emax is 103% and the EC50 was found to be 0.004 µM.

Turning to `Cc1cc(-c2cccc(N3CCCCC3)c2)cc(N2CC(C(=O)O)C2)c1` [Example 17, 1-[3-methyl-5-[3-(1-piperidyl)phenyl]phenyl]azetidine-carboxylic acid], the results for the Emax at NURR-1/RXRα and on NURR-1/RXRγ were 99% and 84%, respectively. In addition, the EC50 was 0.053 µM at NURR-1/RXRα and 0.119 µM at NURR-1/RXRγ.

In the case of `Cc1cc(-c2cc(F)cc(Cl)c2)cc(N2CC(C(=O)O)C2)c1` [Example 18, 1-[3-(3-chloro-5-fluorophenyl)-5-methylphenyl]azetidine-3-carboxylic acid], at NURR-1/RXRα, the Emax is 95% and the EC50 stood at 0.067 µM. Further, on NURR-1/RXRγ, the Emax is 93% and the EC50 came to 0.157 µM.

As to `Cc1cc(-c2cccc(C3=NC(C)(C)CO3)c2)cc(N2CC(C(=O)O)C2)c1` [Example 19, 1-[3-[3-(4,4-dimethyl-5H-oxazol-2-yl)phenyl]-5-methylphenyl]azetidine-3-carboxylic acid], on NURR-1/RXRα, the Emax amounted to 97% and the EC50 was 1.43 µM. Also, at NURR-1/RXRγ, the Emax came out at 71% and the EC50 came to 1.77 µM.

For `Cc1cc(-c2cccc(C(C)(C)O)c2)cc(N2CC(C(=O)O)C2)c1` [Example 20, 1-[3-[3-(1-hydroxy-1-methylethyl)phenyl]-5-methylphenyl]azetidine-3-carboxylic acid], at NURR-1/RXRα, the maximal effect (Emax) was 87% and the EC50 is 2.09 µM. In addition, on NURR-1/RXRγ, the Emax was determined as 69% and the EC50 was greater than 5 µM.

On to `Cc1cc(-c2cc(C(F)(F)F)nc3ccccc23)cc(N2CC(C(=O)O)C2)c1` [Example 21, 1-[3-methyl-5-[2-(trifluoromethyl)-4-quinolyl]phenyl]azetidine-3-carboxylic acid], for which the Emax was 102% at NURR-1/RXRα and 101% on NURR-1/RXRγ. The concentration for a half-maximal effect (EC50) was determined as 0.013 µM on NURR-1/RXRα and 0.004 µM at NURR-1/RXRγ.

Turning to `CC(C)COc1ccc(C(F)(F)F)cc1-c1cccc(N2CC(C(=O)O)C2)c1` [Example 94, 1-[3-[2-isobutoxy-5-(trifluoromethyl)phenyl]phenyl]azetidine-3-carboxylic acid], at NURR-1/RXRα, the Emax came out at 48% and the EC50 came to 0.018 µM.

With `COc1ccccc1C(C)Oc1ccc(C(F)(F)F)cc1-c1cccc(N2CC(C(=O)O)C2)c1` (centres unmarked) [Example 95, 1-[3-[2-[1-(2-methoxyphenyl)ethoxy]-5-(triflurooemethyl)phenyl]phenyl]azetidine-3-carboxylic acid], at NURR-1/RXRα, the Emax is 46% and the EC50 worked out at 0.02 µM.

With `CN1CC2(CCC2)Oc2cc(C(C)(C)C)cc(-c3cccc(N4CC(C(=O)O)C4)c3)c21` [Example 213, tert-butylammonium 1-[3-(7-tert-butyl-4-methyl-spiro[3H-1,4-benzoxazine-2,1′-cyclobutane]-5-yl)phenyl]azetidine-3-carboxylate], on NURR-1/RXRα, the Emax turned out to be 77% and the EC50 stood at 0.00079 µM.

On to `CC1(C)CN(CC(F)(F)F)c2c(cc(C(F)(F)F)cc2-c2cccc(N3CC(C(=O)O)C3)c2)O1` [Example 215, tert-butylammonium 1-[3-[2,2-dimethyl-4 (2,2,2-trifluoromethyl)-7-(trifluoromethyl)-3H-1,4-benzoxazin-5-yl]phenyl]azetidine-3-carboxylate], for which, at NURR-1/RXRα, the Emax stood at 61% and the EC50 is 0.001 µM.

In the case of `CC(C)c1ccc2c(c1)CC(C)(C)CN2c1cccc(N2CC(C(=O)O)C2)c1` [Example 245, tert-butylammonium 1-[3-(6-isopropyl-3,3-dimethyl-2,4-dihydroquinolin-1-yl)phenyl]azetidine-3-carboxylate], on NURR-1/RXRα, the maximum response (Emax) stood at 89% and the EC50 worked out at 0.114 µM.

For `CC1(C)Oc2cc(C#N)ccc2N(c2cccc(N3CC(C(=O)O)C3)c2)C1=O` [Example 254, tert-butylammonium 1-[3-(7-cyano-2,2-dimethyl-3-oxo-1,4-benzoxazin-4-yl)phenyl]azetidine-3-carboxylate], on NURR-1/RXRα, the Emax worked out at 70% and the EC50 came out at 2.95 µM.

On to `CC1(C)CC(c2cccc(N3CC(C(=O)O)C3)c2)c2ccc(C(F)(F)F)cc2O1` (centres unmarked) [Example 270, tert-butylammonium 1-[3-[2,2-dimethyl-7-(trifluoromethyl)chroman-4-yl]phenyl]azetidine-3-carboxylate], for which, at NURR-1/RXRα, the Emax was determined as 99% and the EC50 was 0.005 µM.

Source of the values: patent US20170066717A1, “NEW PHENYLAZETIDINECARBOXYLATE OR -CARBOXAMIDE COMPOUNDS” (INVENTIVA, priority 2014, published 2017).
